Converted amounts (≈) assume the structure as drawn. Like-named read-outs stand apart in the source and are kept apart here.
Tests used:
[1] = tested on: PC3 (prostate cancer); assay: Cytotoxicity, crystal violet biomass reduction assay, PC3; type: cell-based; details: 72 h
Description: (§1) Cytotoxicity Assays: against PC3, HeLa and MCF-7 cell lines.
(§2) In vitro activities against cells were determined with a crystal violet biomass reduction assay. Cells were grown in media supplemented with fetal bovin serum and penicillin/streptromycin antibiotic. 100 μL of cell inoculums was added to each well. After cell inoculation, the 96 well micro-titer plates were incubated at 37° C. and 5% CO2 with 95% humidity for 24 h prior to addition of compounds. A stock solution of each compound was made in DMSO and then diluted with media to give a 40 μM solution. 100 μL of DMSO/media solutions of compounds were added in replicates of 3. 100 μL solution was added to the first set of wells. Two-fold serial dilutions were made down each row of the micro-titer plate. The cells were incubated in a 37° C., 5% CO2 and 95% humidity for 72 h. The media was removed and the cells were fixed with glutaraldehyde, rinsed, stained with crystal violet, rinsed and air dried. The stain was eluted with a solution of Triton-X-100 and optical density was measured at 595 nm. Trichostatin A was used as a positive control for all the cell lines tested.

[2] = tested on: M. aurum (SB66); assay: Broth microdilution MIC, M. aurum; type: cell-based, Mycobacterium aurum; details: 37° C., 18-20 h, average of three measurements, in µM
[3] = tested on: A. baumanii ATCC17961; assay: Broth microdilution MIC, A. baumanii; type: cell-based, Acinetobacter baumanii; details: 37° C., 18-20 h, average of three measurements
[4] = tested on: S. aureus SG511; assay: Broth microdilution MIC, S. aureus; type: cell-based, Staphylococcus aureus; details: 37° C., 18-20 h, average of three measurements
[5] = tested on: M. vaccae IMET10670; assay: Broth microdilution MIC, M. vaccae; type: cell-based, Mycobacterium vaccae; details: 37° C., 18-20 h, average of three measurements
[6] = tested on: HeLa; assay: Cytotoxicity, crystal violet biomass reduction assay, HeLa; type: cell-based; details: 72 h
Description: as §1, §2

[7] = tested on: M. smegmatis (MC2155); assay: Broth microdilution MIC, M. smegmatis; type: cell-based, Mycobacterium smegmatis; details: 37° C., 18-20 h, average of three measurements
[8] = tested on: MCF-7 (breast cancer); assay: Cytotoxicity, crystal violet biomass reduction assay, MCF-7; type: cell-based; details: 72 h
Description: as §1, §2

[9] = tested on: M. kansasii (ATCC:12478); assay: NTM MIC assay, M. kansasii; type: cell-based, Mycobacterium kansasii; details: for In vitro activity (MIC) M. kansasii: Middlebrook 7H9 with OADC, 37° C., 6 days
[10] = tested on: P. aeruginosa KW799/61; assay: Broth microdilution MIC, P. aeruginosa; type: cell-based, Pseudomonas aeruginosa; details: 37° C., 18-20 h, average of three measurements
[11] = tested on: M. marinum (ATCC: 927); assay: NTM MIC assay, M. marinum; type: cell-based, Mycobacterium marinum; details: for In vitro activity (MIC) M. marinum: Middlebrook 7H9 with OADC, 30° C., 5 days
[12] = tested on: Mtb H37Rv (ATCC#27294); assay: Microplate Alamar Blue assay (MABA), replicating TB; type: cell-based, Mycobacterium tuberculosis; details: for MIC: Mycobacterium tuberculosis, H37Rv, reduction in fluorescence of ≧90%
[13] = tested on: M. bovis BCG (ATCC: 35734); type: cell-based, Mycobacterium bovis; details: for In vitro activity (MIC) M. bovis: M. bovis BCG, 7H12, 37° C., 6 days
[14] = tested on: M. luteus ATCC10240; assay: Broth microdilution MIC, M. luteus; type: cell-based; details: 37° C., 18-20 h, average of three measurements
[15] = 7H12 medium, read-out: MABA:MIC 7H12
[16] = glycerol-alanine-salts medium, read-out: MABA:MIC GAS

Row | Structure (SMILES) | Cytotoxicity PC3 [1] | In vitro activity (MIC) M. aurum [2] | In vitro activity (MIC) A. baumanii ATCC17961 [3] [µM] | In vitro activity (MIC) S. aureus SG511 [4] [µM] | In vitro activity (MIC) M. vaccae IMET10670 [5] [µM] | Cytotoxicity HeLa [6] | In vitro activity (MIC) M. smegmatis [7] [µM] | Cytotoxicity MCF-7 [8] | Activity against M. kansasii (in words) [9] | In vitro activity (MIC) P. aeruginosa KW799/61 [10] | Activity against M. marinum (in words) [11] | Activity against M. tuberculosis (in words) [12] | MIC [12, 15] [µM] | MIC [12, 16] [µM] | Activity against M. bovis (in words) [13] | In vitro activity (MIC) M. luteus ATCC10240 [14] [µM] | In vitro activity (MIC) M. kansasii [9] [µM] | In vitro activity (MIC) M. marinum [11] [µM] | In vitro activity (MIC) M. bovis [13] [µM]
1 | C[C@H]1COC2(CCN(C3=NC(=O)c4cc(C(F)(F)F)cc([N+](=O)[O-])c4S3(=O)=O)CC2)O1 [Compound 6, (S)-2-(2-Methyl-1,4-dioxa-8-azaspiro[4.5]decan-8-yl)-8-nitro-6-(trifluoromethyl)-4H-benzo[e][1,3]thiazin-4-one 1,1-dioxide] | >20 | >200 | > 200 | 0.2 | < 0.013 | >20 | > 0.5 | >20 | either inactive or weakly inactive | >200 | either inactive or weakly inactive | only weakly active | 1.46 (≈ 0.677 µg/mL) | 0.75 | only weakly active | > 200 | – | – | –
2 | NNC(=O)c1ccncc1 [INH] | – | – | – | – | – | – | – | – | – | – | – | – | 0.1 (≈ 0.0137 µg/mL) | 0.03 | – | – | 3.86 | > 8 | 0.5
3 | C[C@H]1COC2(CCN(c3nc(=O)c4cc(C(F)(F)F)cc([N+](=O)[O-])c4s3)CC2)O1 [Compound 1, BTZ043, reference compound] | >20 | >200 | > 200 | > 0.2 | 0.002 | >20 | 0.002 | >20 | – | >200 | – | impressive activity | < 0.02 | < 0.02 | impressive activity | > 200 | < 0.02 | 0.037 | < 0.02
4 | C[C@H]1COC2(CCN(c3nc(=O)c4cc(C(F)(F)F)cc([N+](=O)[O-])c4[s+]3[O-])CC2)O1 (stereo partly drawn) [Compound 5, 2-((S)-2-Methyl-1,4-dioxa-8-azaspiro[4.5]decan-8-yl)-8-nitro-6-(trifluoromethyl)-4H-benzo[e][1,3]thiazin-4-one 1-oxide] | 15 | 3.13-12.5 | > 200 | 12.5 | < 0.013 | >20 | < 0.013 | >20 | demonstrated activity | >200 | demonstrated activity | impressive activity | 0.06 (≈ 0.0268 µg/mL) | < 0.02 | impressive activity | 50 | 0.3 | 0.19 | 0.21
5 | CO[C@H]1/C=C/O[C@@]2(C)Oc3c(C)c(O)c4c(O)c(c(/C=N/N5CCN(C)CC5)c(O)c4c3C2=O)NC(=O)/C(C)=C\C=C\[C@H](C)[C@H](O)[C@@H](C)[C@@H](O)[C@@H](C)[C@H](OC(C)=O)[C@@H]1C [Rifampin] | – | – | – | – | – | – | – | – | – | – | – | – | 0.05 (≈ 0.0411 µg/mL) | 0.04 | – | – | 0.1 | 0.23 | 0.02
6 | O=C(O)c1cn(C2CC2)c2cc(N3CCNCC3)c(F)cc2c1=O [Ciprofloxacin, reference compound] | – | 0.020 | 0.156 | 0.32 | 0.32 | – | 0.32 | – | – | 0.156 | – | – | – | – | – | 1.25 | – | – | –
